Assay results taken from PubChem BioAssay AID330 (DTP/NCI, 2004).
Several values for one entry are separate records, joined by “and”; a condition that tells them apart may be missing. Identical values can stand only once. Inconclusive results and toxic doses are left out. How the source made its calls: active means survival T/C of 150% or more; inactive means T/C below 125% in these data.

System: P388 leukemia ip, CD2F1 mice, survival T/C
Experiment: NCI In Vivo Anticancer Drug Screen. Data for tumor model P388 Leukemia (intraperitoneal) in CD2F1 (CDF1) mice
Settings: endpoint: median survival time, higher = longer survival
Summary of the method: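 Mice carrying the transplanted tumor received test compound or vehicle. Survival was recorded in each group, and the value is the treated-group measurement divided by that of the vehicle-treated control group.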

[1] = dose: 100.0 mg/kg/injection, schedule: Q04DX003 (ip), vehicle: saline
[2] = dose: 200.0 mg/kg/injection, schedule: Q04DX003 (ip), vehicle: saline
[3] = dose: 50.0 mg/kg/injection, schedule: Q01DX005 (ip), vehicle: saline with Tween-80
[4] = dose: 100.0 mg/kg/injection, schedule: Q04DX003 (ip), vehicle: saline with Tween-80
[5] = dose: 50.0 mg/kg/injection, schedule: Q04DX003 (ip), vehicle: saline
[6] = dose: 50.0 mg/kg/injection, schedule: Q01DX009 (ip), vehicle: saline with Tween-80
[7] = dose: 100.0 mg/kg/injection, schedule: Q01DX009 (ip), vehicle: saline with Tween-80
[8] = dose: 200.0 mg/kg/injection, schedule: Q01DX009 (ip), vehicle: saline with Tween-80
[9] = dose: 50.0 mg/kg/injection, schedule: Q01DX009 (ip), vehicle: saline
[10] = dose: 100.0 mg/kg/injection, schedule: Q01DX005 (ip), vehicle: saline with Tween-80
[11] = dose: 200.0 mg/kg/injection, schedule: Q01DX005 (ip), vehicle: saline with Tween-80
[12] = dose: 50.0 mg/kg/injection, schedule: Q01DX001 (ip), vehicle: Klucel (hydroxypropylcellulose) (HPC)
[13] = dose: 100.0 mg/kg/injection, schedule: Q01DX001 (ip), vehicle: Klucel (hydroxypropylcellulose) (HPC)
[14] = dose: 200.0 mg/kg/injection, schedule: Q01DX001 (ip), vehicle: Klucel (hydroxypropylcellulose) (HPC)
[15] = dose: 100.0 mg/kg/injection, schedule: Q01DX009 (ip), vehicle: saline
[16] = dose: 200.0 mg/kg/injection, schedule: Q01DX009 (ip), vehicle: saline
[17] = dose: 100.0 mg/kg/injection, schedule: Q04DX002 (ip), vehicle: saline with Tween-80
[18] = dose: 200.0 mg/kg/injection, schedule: Q04DX002 (ip), vehicle: saline with Tween-80

Measured: T/C

CS(=O)(=O)OCCN(CCOS(C)(=O)=O)c1ccc(N=Nc2ccccc2C(=O)O)cc1
107 % of control and 213 % of control: dose: 6.25 mg/kg/injection, schedule: Q01DX009 (ip), vehicle: Klucel (hydroxypropylcellulose) (HPC)
active: dose: 0.78 mg/kg/injection, schedule: Q01DX009 (ip), vehicle: Klucel (hydroxypropylcellulose) (HPC) 168 % of control | dose: 1.56 mg/kg/injection, schedule: Q01DX009 (ip), vehicle: Klucel (hydroxypropylcellulose) (HPC) 187 % of control and 206 % of control | dose: 3.12 mg/kg/injection, schedule: Q01DX009 (ip), vehicle: Klucel (hydroxypropylcellulose) (HPC) 233 % of control | dose: 3.13 mg/kg/injection, schedule: Q01DX009 (ip), vehicle: Klucel (hydroxypropylcellulose) (HPC) 242 % of control

CC(C)CC1[NH][Sn]2([NH]C(CC(C)C)C(=O)[O]2)[O]C1=O (stereo not given)
inactive: dose: 6.25 mg/kg/injection, schedule: Q01DX005 (ip), vehicle: Klucel (hydroxypropylcellulose) (HPC) 104 % of control | dose: 12.5 mg/kg/injection, schedule: Q01DX005 (ip), vehicle: Klucel (hydroxypropylcellulose) (HPC) 105 % of control | dose: 25.0 mg/kg/injection, schedule: Q01DX005 (ip), vehicle: Klucel (hydroxypropylcellulose) (HPC) 104 % of control

Cn1c(=O)c2c(nc([N+](=O)[O-])n2C)n(C)c1=O
inactive: [1] 104 % of control | [2] 100 % of control

CC1(C)N=C(N)N=C(N)N1c1ccc(S(C)(=O)=O)cc1
inactive: dose: 12.5 mg/kg/injection, schedule: Q01DX005 (ip), vehicle: saline with Tween-80 103 % of control | dose: 25.0 mg/kg/injection, schedule: Q01DX005 (ip), vehicle: saline with Tween-80 101 % of control | [3] 100 % of control and 106 % of control

CCCCCCCC/C=C\CCCCCCCCOC(N)=O
inactive: dose: 25.0 mg/kg/injection, schedule: Q04DX003 (ip), vehicle: other 100 % of control | dose: 50.0 mg/kg/injection, schedule: Q04DX003 (ip), vehicle: other 104 % of control | dose: 100.0 mg/kg/injection, schedule: Q04DX003 (ip), vehicle: other 104 % of control

Cc1nc2c([N+](=O)[O-])c(Nc3ccc(O)cc3)c([N+](=O)[O-])cc2[nH]1
inactive: [4] 99 % of control | dose: 200.0 mg/kg/injection, schedule: Q04DX003 (ip), vehicle: saline with Tween-80 92 % of control | dose: 400.0 mg/kg/injection, schedule: Q04DX003 (ip), vehicle: saline with Tween-80 92 % of control

COc1ccc2c(c1)CCC(c1nc3cccc([N+](=O)[O-])c3[nH]c1=O)=C2O
inactive: dose: 7.5 mg/kg/injection, schedule: Q01DX005 (ip), vehicle: Klucel + Tween-80 91 % of control | dose: 15.0 mg/kg/injection, schedule: Q01DX005 (ip), vehicle: Klucel + Tween-80 94 % of control | dose: 30.0 mg/kg/injection, schedule: Q01DX005 (ip), vehicle: Klucel + Tween-80 92 % of control

c1ccc(N2CCSCC2)cc1
active: dose: 66.0 mg/kg/injection, schedule: Q04DX003 (ip), vehicle: saline with Tween-80 150 % of control | [4] 204 % of control | dose: 150.0 mg/kg/injection, schedule: Q04DX003 (ip), vehicle: saline with Tween-80 190 % of control
inactive: [5] 104 % of control | [2] 109 % of control

CC1(C)COC(=O)C(C)(C2(C)NC(C)(C)COC2=O)N1 (stereo not given)
inactive: dose: 25.0 mg/kg/injection, schedule: Q01DX009 (ip), vehicle: saline with Tween-80 99 % of control | [6] 102 % of control | [7] 101 % of control | dose: 200.0 mg/kg/injection, schedule: Q01DX001 (ip), vehicle: saline with Tween-80 95 % of control | [8] 114 % of control | dose: 400.0 mg/kg/injection, schedule: Q01DX001 (ip), vehicle: saline with Tween-80 97 % of control | dose: 400.0 mg/kg/injection, schedule: Q01DX009 (ip), vehicle: saline with Tween-80 106 % of control | dose: 800.0 mg/kg/injection, schedule: Q01DX001 (ip), vehicle: saline with Tween-80 101 % of control

C[CH2][Sn]([c]1ccccc1)[c]1ccccc1
inactive: dose: 12.5 mg/kg/injection, schedule: Q01DX009 (ip), vehicle: saline 109 % of control | dose: 25.0 mg/kg/injection, schedule: Q01DX009 (ip), vehicle: saline 114 % of control | dose: 25.0 mg/kg/injection, schedule: Q04DX003 (ip), vehicle: saline 108 % of control | [9] 114 % of control and 116 % of control | [5] 115 % of control | [1] 109 % of control

CC(c1ccc(OCc2ccccc2)cc1)c1cc2c(cc1OCCO)OCO2 (stereo not given)
inactive: [3] 98 % of control | [10] 100 % of control | [11] 100 % of control

CC1=CC(=O)C2OC2C1=O (stereo not given)
inactive: dose: 5.0 mg/kg/injection, schedule: Q04DX002 (ip), vehicle: saline with Tween-80 101 % of control

CCOC(=Nc1ccc2ccccc2c1)SC(c1ccccc1)(c1ccccc1)c1ccccc1
inactive: [3] 107 % of control | [10] 95 % of control | [11] 87 % of control

C[C@H](N)C(O)/C=C/c1ccccc1 (stereo not given in full)
inactive: dose: 10.0 mg/kg/injection, schedule: Q01DX005 (ip), vehicle: saline 103 % of control | dose: 20.0 mg/kg/injection, schedule: Q01DX005 (ip), vehicle: saline 93 % of control | dose: 40.0 mg/kg/injection, schedule: Q01DX005 (ip), vehicle: saline 97 % of control

CCS(CC)=NC(=O)C(Cl)Cl
inactive: [12] 100 % of control and 104 % of control and 97 % of control | [13] 99 % of control and 100 % of control and 94 % of control | [14] 99 % of control and 100 % of control and 123 % of control | dose: 400.0 mg/kg/injection, schedule: Q01DX001 (ip), vehicle: Klucel (hydroxypropylcellulose) (HPC) 111 % of control and 95 % of control

CC(C)(C)CC(C)(C)c1ccc(OCc2ccc(C(F)(F)F)cc2)cc1
inactive: [6] 100 % of control | [7] 96 % of control | [8] 100 % of control

C#CC(C)(CC)OC(=O)c1ccccc1C(=O)O (stereo not given)
inactive: [9] 100 % of control | [15] 104 % of control | [16] 95 % of control

CCOC(=O)NC(C)CC(C)NC(=O)OCC (stereo not given)
inactive: [12] 94 % of control | [13] 92 % of control | [14] 93 % of control

Cn1c([N+](=O)[O-])cnc1/C=N\N1CC(CN2CCOCC2)OC1=O (stereo not given)
inactive: dose: 50.0 mg/kg/injection, schedule: Q01DX009 (ip), vehicle: suspension in saline 100 % of control | dose: 100.0 mg/kg/injection, schedule: Q01DX009 (ip), vehicle: suspension in saline 100 % of control | dose: 200.0 mg/kg/injection, schedule: Q01DX009 (ip), vehicle: suspension in saline 100 % of control

O=P(CCC(O)c1ccccc1)(c1ccccc1)c1ccccc1 (stereo not given)
inactive: dose: 25.0 mg/kg/injection, schedule: Q01DX009 (ip), vehicle: saline sonified 100 % of control | dose: 50.0 mg/kg/injection, schedule: Q01DX009 (ip), vehicle: saline sonified 90 % of control

CCO/C=N\Nc1ccc2nnc(Cl)n2n1
inactive: [9] 92 % of control | [15] 103 % of control | [16] 93 % of control

CCN(CC)Cc1cc(C)c(O)c(N=Nc2cccc3ccccc23)c1C
inactive: [17] 86 % of control | [18] 91 % of control | dose: 400.0 mg/kg/injection, schedule: Q04DX002 (ip), vehicle: saline with Tween-80 109 % of control

OCC1OC(n2cnc3c(I)ncnc32)C(O)C1O (stereo not given)
inactive: [3] 100 % of control | [10] 103 % of control | [11] 101 % of control

COc1ccc(C2CC(=O)N(c3ccncc3)C(=O)C2)cc1
inactive: dose: 50.0 mg/kg/injection, schedule: Q04DX002 (ip), vehicle: saline with Tween-80 115 % of control | [17] 95 % of control | [18] 90 % of control

C/C=C(\C)C(=O)OC1C2C(C)=CC(O)C(O)C2(C)C2C3(O)OCC24C(CC(=O)OC14)C(C)C3O (stereo not given)
inactive: dose: 0.25 mg/kg/injection, schedule: Q01DX009 (ip), vehicle: Klucel (hydroxypropylcellulose) (HPC) 109 % of control | dose: 0.5 mg/kg/injection, schedule: Q01DX009 (ip), vehicle: Klucel (hydroxypropylcellulose) (HPC) 101 % of control | dose: 1.0 mg/kg/injection, schedule: Q01DX009 (ip), vehicle: Klucel (hydroxypropylcellulose) (HPC) 104 % of control | dose: 2.0 mg/kg/injection, schedule: Q01DX009 (ip), vehicle: Klucel (hydroxypropylcellulose) (HPC) 104 % of control
